Peptide text beside a SMILES is read from it.
Molecular target: VR1 nocireceptor
Test: Blockage of capsaicin-activated ionic current in X. laevis ovocites expressing the VR1 nocireceptor (two-microelectrode voltage clamp)
Type: cell-based
Settings: VR1 expressed in X. laevis ovocites; activated by capsaicin 20 µM; transmembrane voltage -80 mV; read-out: peptide concentrations that inhibited half of the VR1 response (IC50)
Text: This test comprises contacting X. laevi ovocites expressing the VR1 nocireceptor with an agonist (ligand) for said VR1 nocireceptor, for example, capsaicin, in the presence or absence of the compound to be tested, maintaining the transmembrane voltage constant at -80 mV, and detecting the inhibiting activity of said compound to be tested by measuring the agonist-activated ionic current in the presence and absence of the compound to be tested. The power and effectiveness of the inhibiting activity of the compound to be tested can be determined by obtaining the dosage-response curves. To achieve this, the magnitude of the capsaicin-activated ionic current blockage is examined in X. laevi ovocites that express the VR1 nocireceptor in the presence of the growing concentrations of the compound to be tested. The ratio of ionic current intensities in the presence and absence of the compound to be tested permits the obtention of dosage-response curves (19,20). These graphs can be adjusted to logarithmic functions to determine the maximum blockage (power) and the antagonist concentration produced by half the maximum blockage (IC50 effective).
In order to evaluate the biological activity of peptides obtained in Example 1.1 a test was developed to evaluate the power of said peptides blocking the agonist-activated ionic current in X. laevis ovocites that express the VR1 nocireceptor.
The heterologous expression of receptors in X. laevis ovocites can be carried out according to the procedure described by Ferrer-Montiel and Montal (19). […] The capsaicin agonist-activated ionic currents are recorded with the maintenance of the constant voltage technique with two microelectrodes (two-microelectrode voltage clamp) (19, 20). […] The inhibiting activity is detected by measuring the agonist -activated ionic current in the presence and absence of the peptides.
The power and effectiveness of the peptide inhibiting activity is determined by means of the obtention of dosage-response curves. […]

Row | Structure (SMILES) | IC50 [nM]
1 | N=C(N)NCCC[C@H](NC(=O)[C@H](CCCNC(=N)N)NC(=O)[C@H](Cc1ccc(O)cc1)NC(=O)[C@H](Cc1ccc(O)cc1)NC(=O)[C@@H](N)CCCNC(=N)N)C(=O)N[C@@H](Cc1c[nH]c2ccccc12)C(=O)O [SEC. ID. N1: 3, Arg-Tyr-Tyr-Arg-Arg-Trp] (H-RYYRRW-OH) | ~10000
2 | N=C(N)NCCC[C@H](NC(=O)[C@H](CCCNC(=N)N)NC(=O)[C@H](CCCNC(=N)N)NC(=O)[C@@H](N)CCCNC(=N)N)C(=O)N[C@@H](Cc1c[nH]c2ccccc12)C(=O)N[C@@H](Cc1c[nH]c2ccccc12)C(=O)O [SEC. ID. N1: 1, Arg-Arg-Arg-Arg-Trp-Trp] (H-RRRRWW-OH) | ~100
3 | CC[C@H](C)[C@H](NC(=O)[C@H](Cc1c[nH]c2ccccc12)NC(=O)[C@H](Cc1c[nH]c2ccccc12)NC(=O)[C@H](CCCNC(=N)N)NC(=O)[C@@H](N)CCCNC(=N)N)C(=O)N[C@@H](CCCNC(=N)N)C(=O)O [SEC. ID. N1: 2, Arg-Arg-Trp-Trp-Ile-Arg] (H-RRWWIR-OH) | ~2000

Source: patent publication EP1179538A1, “PEPTIDES BLOCKING RESPONSE TO CHEMICAL SUBSTANCES OR THERMAL STIMULI OR NOCICEPTOR INFLAMMATION MEDIATORS AND COMPOSITIONS CONTAINING SAID PEPTIDES” (Universidad Miguel Hernandez de Elche, priority 1999, dated 2002)
